Broadly, the melting point is the temperature of the solid-liquid transition. As a reminder, the IC50 is the concentration that gives 50% inhibition. A low value points to inhibition by little substance.

From patent publication US9403832B2, “Pyrazolo[1,5-a]pyrimidine-based compounds, compositions comprising them, and methods of their use” (Lexicon Pharmaceuticals, Inc., priority 2012, dated 2016) come the findings set out here.

Data set [1] addresses T1, AAK1 (Homo sapiens, UniProt Q2M2I8).
T1 construct: NP_055726.2
Briefly: P81 filter plate assay. The format is biochemical. To be noted: full-length human AAK1, Mu2 substrate, 33P-ATP. In outline: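 Full-length human AAK1 (0.2 nM, 2×) was pre-incubated 10 min at RT with compounds (top concentration 96 μM in the dilution plate), then reacted 1 h at RT with full-length human Mu2 (0.2 μM, 2×), cold ATP (2 μM, 2×) and ³³P-ATP. Reactions were stopped with phosphoric acid and captured on P81 filters for scintillation counting.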

In data set [2] the target is T1, AAK1. Briefly: HEK281 cell-based assay (CBA). To be noted: HEK293F cells transfected with full length human AAK1 and AP2M1; phospho-mu2 Western blot; 3 hours incubation. The procedure, abridged: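 HEK293F cells co-transfected with full-length human AAK1/HA and Flag-AP2M1 (mu2), then treated in suspension with compounds (5 concentrations, 3-fold steps) in DMEM+0.5% FBS for 3 hours at 37° C. Phospho-mu2 and total mu2 (anti-Flag) assessed by Western blot.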
A general note: A western blot detects proteins with antibodies after separation by electrophoresis.

T1 sequence (Q2M2I8 1-863 isoform Q2M2I8-2): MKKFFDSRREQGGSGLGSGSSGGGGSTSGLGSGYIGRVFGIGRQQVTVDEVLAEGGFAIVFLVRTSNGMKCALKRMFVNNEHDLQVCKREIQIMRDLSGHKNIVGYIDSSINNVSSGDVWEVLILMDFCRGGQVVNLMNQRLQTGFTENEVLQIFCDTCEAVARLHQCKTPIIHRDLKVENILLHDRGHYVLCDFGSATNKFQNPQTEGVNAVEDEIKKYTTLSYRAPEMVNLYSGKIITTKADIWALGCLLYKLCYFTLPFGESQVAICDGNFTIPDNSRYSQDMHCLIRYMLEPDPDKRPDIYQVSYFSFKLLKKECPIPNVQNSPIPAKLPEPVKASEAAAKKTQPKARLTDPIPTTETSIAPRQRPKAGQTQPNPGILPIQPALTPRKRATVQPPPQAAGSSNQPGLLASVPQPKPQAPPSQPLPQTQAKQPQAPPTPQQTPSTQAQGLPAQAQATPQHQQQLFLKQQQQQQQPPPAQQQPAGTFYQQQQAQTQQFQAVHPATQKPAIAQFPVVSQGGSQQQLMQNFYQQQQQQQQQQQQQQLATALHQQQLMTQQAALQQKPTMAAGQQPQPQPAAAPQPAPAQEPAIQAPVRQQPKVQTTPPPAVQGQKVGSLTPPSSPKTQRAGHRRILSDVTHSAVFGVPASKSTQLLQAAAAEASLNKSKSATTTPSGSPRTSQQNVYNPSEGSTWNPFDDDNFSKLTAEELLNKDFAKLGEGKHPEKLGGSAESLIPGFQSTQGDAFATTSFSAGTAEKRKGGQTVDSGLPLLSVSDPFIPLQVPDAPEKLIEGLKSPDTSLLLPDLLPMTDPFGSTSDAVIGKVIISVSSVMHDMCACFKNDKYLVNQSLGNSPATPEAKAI

On to `CN(CCNc1ccn2ncc(-c3cccs3)c2n1)C(=O)OC(C)(C)C` [Example 5.6.4, Methyl-[2-(3-thiophen-2-yl-pyrazolo[1,5-a]pyrimidin-5-ylamino)-ethyl]-carbamic acid tert-butyl ester], for which the melting point lay in the range of 140 to 141 °C.

As for `[2H]C([2H])([2H])Oc1ncccc1-c1cnn2ccc(N3CCN(C(=O)OC(C)(C)C)CC3)nc12` [tert-butyl 4-(3-(2-d3-methoxypyridin-3-yl)pyrazolo[1,5-a]pyrimidin-5-yl)piperazine-1-carboxylate], the IC50 in data set [1] and in data set [2] was at most 10 nM each time.

Take `COc1cccc(-c2cnn3ccc(N4CCN(C(=O)OC(C)C)CC4)nc23)n1` [isopropyl 4-(3-(6-methoxypyridin-2-yl)pyrazolo[1,5-a]pyrimidin-5-yl)piperazine-1-carboxylate]: the IC50 in data set [1] is at most 10 nM; in data set [2] it was at most 100 nM.

Regarding `CC(C)[C@H](N)C(=O)N1CCN(c2ccn3ncc(-c4cccc(F)c4)c3n2)CC1` [(S)-2-amino-1-(4-(3-(3-fluorophenyl)pyrazolo[1,5-a]pyrimidin-5-yl)piperazin-1-yl)-3-methylbutan-1-one], the IC50 in data set [1] and in data set [2] was at most 10 nM in each case.

In the case of `CC(C)(C)OC(=O)N1CCC[C@H]1CNc1ccn2ncc(-c3ccc(CN)cc3)c2n1` [(S)-tert-butyl 2-(((3-(4-(aminomethyl)phenyl)pyrazolo[1,5-a]pyrimidin-5-yl)amino)methyl)pyrrolidine-1-carboxylate], the IC50 in data set [1] and in data set [2] was at most 10 nM each time.

As to `COc1ccc(F)cc1-c1cnn2ccc(N3CCN(C(=O)[C@@H](N)CC(C)C)CC3)nc12` [(S)-2-amino-1-(4-(3-(5-fluoro-2-methoxyphenyl)pyrazolo[1,5-a]pyrimidin-5-yl)piperazin-1-yl)-4-methylpentan-1-one], the IC50 in data set [1] and in data set [2] was at most 10 nM each time.

As to `CN[C@@H](CC(C)C)C(=O)N1CCN(c2ccn3ncc(-c4cccnc4OC)c3n2)CC1` [(S)-1-(4-(3-(2-methoxypyridin-3-yl)pyrazolo[1,5-a]pyrimidin-5-yl)piperazin-1-yl)-4-methyl-2-(methylamino)pentan-1-one], the IC50 in data set [1] and in data set [2] was at most 10 nM in each case.

Regarding `COc1ncc(F)cc1-c1cnn2ccc(N3CCN(C(=O)O[C@@H]4CCOC4)CC3)nc12` [(R)-tetrahydrofuran-3-yl 4-(3-(5-fluoro-2-methoxypyridin-3-yl)pyrazolo[1,5-a]pyrimidin-5-yl)piperazine-1-carboxylate], the IC50 in data set [1] and in data set [2] was at most 10 nM each time.

Regarding `CCOC(=O)N1CCN(c2ccn3ncc(-c4cc(F)cnc4OC)c3n2)CC1` [ethyl 4-(3-(5-fluoro-2-methoxypyridin-3-yl)pyrazolo[1,5-a]pyrimidin-5-yl)piperazine-1-carboxylate], the half-inhibitory concentration (IC50) in data set [1] was at most 10 nM; in data set [2] it was at most 100 nM.

Consider `CC(C)OC(=O)N1CCN(c2ccn3ncc(-c4ccc(CN)cc4)c3n2)CC1` [isopropyl 4-(3-(4-(aminomethyl)phenyl)pyrazolo[1,5-a]pyrimidin-5-yl)piperazine-1-carboxylate], for which the concentration for half-maximal inhibition (IC50) in data set [1] and in data set [2] was at most 10 nM in each case.

In the case of `COCCOC(=O)N1CCN(c2ccn3ncc(-c4cc(F)cnc4OC)c3n2)CC1` [2-methoxyethyl 4-(3-(5-fluoro-2-methoxypyridin-3-yl)pyrazolo[1,5-a]pyrimidin-5-yl)piperazine-1-carboxylate], the figures for the IC50 in data set [1] and in data set [2] were at most 10 nM and at most 100 nM, respectively.
